Reference: patent publication US20200147028A1, “TREATMENT OF RESPIRATORY INFECTION WITH A TLR2 AGONIST” (Ena Therapeutics Pty Ltd, priority 2017, published 2020)
“Also recorded” adds a separate entry of the source.

Experiments:
[1] = set-up: species or system BALB/c mice; conditions: mouse, in vivo
Description: Each group contained 5 mice.

CXCL1 [2] = test: Mouse RV1B infection with fluticasone propionate: CXCL1 in BAL by ELISA; format: in vivo, BALB/c mice; conditions: 2 pmol INNA-006, with or without FP; day 2 p.i.
TNF-α = test: Mouse RV1B infection with fluticasone propionate: TNF-α in BAL by ELISA; format: in vivo, BALB/c mice
[3] = system: other TLR pattern recognition receptors; test: TLR panel NF-κB SEAP reporter in HEK293 cells: other TLRs; format: cell-based; conditions: human and mouse TLR panels
Experimental: (§1) INNA-006 was assessed for its ability to activate a range of other TLR pattern recognition receptors. These assessments were conducted using both human and mouse TLR panels. These assays detect a secreted embryonic alkaline phosphatase (SEAP) reporter under the control of a promoter which is inducible by NF-κB activation in HEK293 cells. The secreted embryonic alkaline phosphatase (SEAP) reporter is under the control of a promoter inducible by the transcription factor NF-κB. This reporter gene allows the monitoring of signaling through the TLR, based on the activation of NF-κB. In a 96-well plate (200 μL total volume) containing the appropriate cells (50,000-75,000 cells/well), 20 μL of the test article or the positive control ligand is added to the wells. The media added to the wells is designed for the detection of NF-κB induced SEAP expression. After a 16-24 hr incubation the optical density (OD) is read at 650 nm on a Molecular Devices SpectraMax 340PC absorbance detector.

BAL inflammatory cells [4] = test: Mouse RV1B infection model: BAL cell analysis
TNFα = test: Mouse RV1B infection model: TNFα in BAL by ELISA
CXCL1 [5] = test: Mouse RV1B infection model: CXCL1 in BAL by ELISA
[6] = system: Rhinovirus serotype 1B (RV1B); test: Mouse RV1B infection model: lung viral RNA by qPCR; conditions: for lung viral load: day +1
TLR-2 = TLR-2 (Homo sapiens, UniProt O60603); test: TLR panel NF-κB SEAP reporter in HEK293 cells: TLR-2; format: cell-based; set-up: expressed in transfected cells; host or cells: HEK293; conditions: human and mouse TLR panels, FIG. 21
Sequence of TLR-2 (O60603 21-784): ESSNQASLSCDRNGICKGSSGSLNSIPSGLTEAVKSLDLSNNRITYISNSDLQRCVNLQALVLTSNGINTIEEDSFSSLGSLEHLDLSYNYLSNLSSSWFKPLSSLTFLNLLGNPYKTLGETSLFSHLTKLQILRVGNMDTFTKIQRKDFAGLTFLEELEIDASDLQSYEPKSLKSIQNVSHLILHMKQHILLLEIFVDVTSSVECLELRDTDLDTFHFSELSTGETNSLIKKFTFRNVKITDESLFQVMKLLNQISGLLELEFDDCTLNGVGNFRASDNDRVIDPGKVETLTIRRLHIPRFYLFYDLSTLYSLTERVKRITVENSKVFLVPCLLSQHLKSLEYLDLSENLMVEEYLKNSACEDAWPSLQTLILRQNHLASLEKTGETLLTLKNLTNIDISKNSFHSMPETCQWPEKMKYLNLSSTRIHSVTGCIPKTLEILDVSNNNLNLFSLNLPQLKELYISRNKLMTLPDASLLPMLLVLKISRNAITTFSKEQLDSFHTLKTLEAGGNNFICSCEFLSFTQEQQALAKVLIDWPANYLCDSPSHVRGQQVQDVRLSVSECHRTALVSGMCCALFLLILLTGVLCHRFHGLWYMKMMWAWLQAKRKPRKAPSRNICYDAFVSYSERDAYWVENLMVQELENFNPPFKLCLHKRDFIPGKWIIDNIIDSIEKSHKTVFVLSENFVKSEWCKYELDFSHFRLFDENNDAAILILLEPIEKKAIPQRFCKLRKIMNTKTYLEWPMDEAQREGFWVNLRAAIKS
Sequence of TLR-2 (Q9Y2C9 32-796 partner): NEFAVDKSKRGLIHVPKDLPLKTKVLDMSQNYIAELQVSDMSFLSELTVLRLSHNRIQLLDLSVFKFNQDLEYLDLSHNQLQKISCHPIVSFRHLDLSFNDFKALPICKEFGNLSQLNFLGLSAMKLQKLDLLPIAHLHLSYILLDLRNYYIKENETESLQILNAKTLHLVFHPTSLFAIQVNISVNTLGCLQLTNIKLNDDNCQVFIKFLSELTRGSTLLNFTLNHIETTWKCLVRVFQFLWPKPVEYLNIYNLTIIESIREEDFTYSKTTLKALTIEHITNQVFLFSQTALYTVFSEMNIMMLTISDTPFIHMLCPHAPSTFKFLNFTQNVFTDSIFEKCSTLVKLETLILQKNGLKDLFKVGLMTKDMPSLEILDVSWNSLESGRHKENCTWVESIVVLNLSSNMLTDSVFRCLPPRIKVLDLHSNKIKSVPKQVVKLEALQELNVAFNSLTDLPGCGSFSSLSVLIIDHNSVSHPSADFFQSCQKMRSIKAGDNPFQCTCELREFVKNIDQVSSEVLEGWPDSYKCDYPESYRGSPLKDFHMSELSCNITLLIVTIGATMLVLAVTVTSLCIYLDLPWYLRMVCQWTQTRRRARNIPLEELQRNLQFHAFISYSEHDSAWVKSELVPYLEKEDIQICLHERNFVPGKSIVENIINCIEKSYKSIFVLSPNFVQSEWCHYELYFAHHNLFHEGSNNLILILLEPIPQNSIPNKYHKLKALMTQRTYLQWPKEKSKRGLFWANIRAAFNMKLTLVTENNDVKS
Experimental: as §1

BAL inflammatory cells [7] = test: Mouse RV1B infection with fluticasone propionate: BAL cell analysis
RV1B = RV1B infection of ALI-differentiated BCi-NS1 cells: viral RNA by qPCR; conditions: 20 nM and 2 nM pre-treatment 24 h; 96 h post infection; vs control
[8] = system: Rhinovirus serotype 1B (RV1B); test: Mouse RV1B infection with fluticasone propionate: lung viral RNA by qPCR
[9] = Study 1G: lowest doses (2 pmole and 1 pmole) day +1, listed as Peg-S-Pam2Cys

weight loss [1]: weight loss at the higher doses
weight loss after second dose [1]: no weight loss observed
SMILES: CCC(=O)OCC(CSCC(N)C(=O)NC(CO)C(=O)NCCOCC(=O)NCC(N)=O)OC(=O)CC (stereo not drawn) [INNA-006, Pam2Cys-Ser-PEG]
CXCL1 in BAL (CXCL1 [2]): neutrophil chemokine production supressed; also recorded: supressed CXCL1 production; also recorded: drastically reduced levels of mouse neutrophil chemokine CXCL1; also recorded: highly effective at suppressing CXCL1 expression
TNF-α in BAL (TNF-α; repeated doses (D-7 & D-1)): not observed
TNF-α in BAL (TNF-α; single 2 pmol dose seven days prior to infection): significant TNF-α production in BAL
activation of other TLRs (SEAP reporter) [3]: no activation of any other TLR tested
RV-induced BAL neutrophilic inflammation (BAL inflammatory cells [4]; Study 1E: day −7, day 2 p.i., listed as Peg-S-Pam2Cys): reduced RV-induced BAL neutrophilic inflammation; also recorded: reduced RV-induced neutrohillic inflammation; also recorded: significantly reduced neutrophilic inflammation
BAL macrophages (BAL inflammatory cells [4]; Study 1F: 2 pmol day −7, mock): higher numbers of macrophages compared to its saline mock control group
BAL lymphocytes (BAL inflammatory cells [4]; Study 1F: 2 pmol, day −7, day −1 or both): promoted lymphocyte recruitment in the BAL
total BAL leukocytes in RV1B infected mice (BAL inflammatory cells [4]; Study 1F: 2 pmol, vs Saline RV): did not induce significantly higher leukocyte recruitment
total BAL leukocytes in mock infected mice (BAL inflammatory cells [4]; Study 1F: 2 pmol, vs Saline mock): Total leukocytes were increased
neutrophilic response in uninfected mice (BAL inflammatory cells [4]; Study 1F: three days after dosing (d-1 groups)): not Peg-S-Pam2Cys
BAL lymphocytes (BAL inflammatory cells [4]; Study 1G: day +1 treatment): no changes to lymphocyte numbers
BAL macrophages (BAL inflammatory cells [4]; Study 1G: day +1 treatment): significantly reducing macrophage numbers
total BAL leucocyte numbers (BAL inflammatory cells [4]; Study 1G: day +1 treatment): no significant differences
BAL neutrophils (BAL inflammatory cells [4]; Study 1G: day +1 treatment, listed as Peg-S-Pam2Cys): drastically increases neutrophil numbers in BAL; also recorded: increasing neutrophil recruitment
TNF-α in BAL (TNFα; Study 1E: day −7, listed as Peg-S-Pam2Cys): not increased by any of the compounds; also recorded: lack of induction of TNFα
TNF-α in BAL (TNFα; Study 1F: 2 pmol, all groups): did not induce TNF-α in any of the groups
TNF-α in BAL (TNFα; Study 1G: 10-1 pmol day +1): dose dependent upon drug treatment
TNF-α in BAL (TNFα; [9]): not increased by the lowest doses; also recorded: no significant increase in KC or TNFα
RV-induced expression of CXCL1 (CXCL1 [5]; Study 1E(ii): INNA-011 and INNA-006 comparison, day −7): reduced RV-induced expression of CXCL1
CXCL1 in BAL (CXCL1 [5]; Study 1E: 10 pmol and 5 pmol dose day −7): effectively reduced CXCL1 levels
CXCL1 in BAL (CXCL1 [5]; Study 1F: 2 pmol day −1, RV1B, listed as Peg-S-Pam2Cys): CXCL1 production was only increased; also recorded: significantly increased in mice treated one day prior to infection
CXCL1 / lung inflammation after day −1 dose with prior day −7 dose (CXCL1 [5]; Study 1F: 2 pmol day −7 and day −1, listed as Peg-S-Pam2Cys): protected from lung inflammation; also recorded: completely abolished
CXCL1 in BAL (CXCL1 [5]; Study 1G: 10-1 pmol day +1): dose dependent upon drug treatment
CXCL1 (KC) in BAL (CXCL1 [5]; [9]): not increased by the lowest doses; also recorded: no significant increase in KC or TNFα
reduction of RV infection (lung RV copy number) ([6]; Study 1E: 10 pmol day −7): 86.76%
anti-viral efficacy relative to Pam2CysSK4 ([6]; Study 1E: 10 pmol dose day −7, listed as Peg-S-Pam2Cys): better anti-viral efficacy compared to Pam2CysSK4
dose dependence of RV suppression ([6]; Study 1E: 1-10 pmol day −7): appeared to be dose dependant
RV copy number in lung ([6]; Study 1E: every dose 1-10 pmol day −7, day 2 p.i.): significant reduction in RV infection
viral clearance, day −7 + day −1 versus day −7 only ([6]; Study 1F: 2 pmol): enhanced viral clearance compared to mice dose only on day 7
reduced viral RNA ([6]; Study 1F: single treatment at day −7): 70%
reduction in viral RNA ([6]; Study 1F: treatment at both days −7 and −1): approx. 90%
RV copy numbers in lung ([6]; Study 1G: 10, 5, 2, 1 pmol 1 day post-infection, day 2 p.i.): reduces RV1B copy numbers in the lung
lung viral load ([6]; Study 1G: doses 5 pmole per mouse and lower): significant reduction in lung viral load
lung viral load ([6]; Study 1G: highest dose 10 pmole per mouse): less effective and not significant
activation of TLR-2 (SEAP reporter) (TLR-2): able to activate its proposed target (TLR-2)
RV-induced, steroid resistant neutrophilic inflammation (BAL inflammatory cells [7]; 2 pmol, all treatment protocols, with or without FP): prevented RV-induced and steroid resistant neutrophilic inflammation; also recorded: completely ameliorated RV-induced and steroid resistant neutrophilic inflammatory response; also recorded: complete suppression of RV-induced steroid resistant neutrophilic inflammation
BAL macrophages and lymphocytes (BAL inflammatory cells [7]; D-7 INNA-006 2 pmol with FP): increased macrophages and lymphocytes when given in conjunction with FP
BAL macrophages and lymphocytes (BAL inflammatory cells [7]; combined D-7 & D-1 INNA-006 2 pmol): increased macrophages and lymphocytes in BAL
BAL macrophages (BAL inflammatory cells [7]; combined D-7 & D-1 INNA-006 in FP treated mice): Increased Macrophages
total BAL leukocyte numbers (BAL inflammatory cells [7]; repeated 2 pmol INNA-006 (day −7 & day −1)): increased total leukocyte numbers
reduction of viral RNA levels (RV1B): approximately 50%
viral lung load ([8]; 2 pmol INNA-006, both treatment protocols, all groups): reduced virus lung load in all groups; also recorded: significant reduction in viral load with both treatment protocols
viral lung load / antiviral efficacy ([8]; repeated INNA-006 (D-7 & D-1) with FP): antiviral efficacy of repeated INNA-006 treatment was enhanced by FP; also recorded: best suppression of viral lung RNA
